Read-outs that look alike come from different tables or passages of the source.
Key:
Type in all cases: cell-based
[1] = target: T1, protein kinases (human kinome) (Homo sapiens, UniProt O14965); settings: experiment wp016
T1 sequence (O14965 1-403): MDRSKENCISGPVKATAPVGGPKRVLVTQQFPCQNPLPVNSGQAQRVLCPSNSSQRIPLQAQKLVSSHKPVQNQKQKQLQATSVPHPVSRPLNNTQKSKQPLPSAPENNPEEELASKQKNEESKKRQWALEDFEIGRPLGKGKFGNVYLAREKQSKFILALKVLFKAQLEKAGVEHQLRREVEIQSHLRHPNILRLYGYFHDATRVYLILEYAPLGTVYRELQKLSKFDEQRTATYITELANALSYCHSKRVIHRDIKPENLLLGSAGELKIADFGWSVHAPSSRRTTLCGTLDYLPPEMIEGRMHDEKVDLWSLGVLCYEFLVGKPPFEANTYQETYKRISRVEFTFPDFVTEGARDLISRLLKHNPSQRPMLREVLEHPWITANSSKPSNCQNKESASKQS
Description: (§1) Although development of targeted protein degraders requires a POI binder, among already-liganded proteins such as kinases, it was hypothesized that different targets would have a different propensity for current approaches to degrader-mediated destruction, which was termed ‘degradability’. […] It was rationalized that the probability of identifying the same kinase as a false positive in multiple treatments is low, therefore this analysis served to also assess the robustness of our data and subsequent interpretations. […] Overall, 62 protein kinases were degraded in more than 10 independent treatments, and remarkably, 9 of these (CDK4, AURKA, FER, WEE1, BLK. LIMK2, CDK6, GAK, LIMK1) were each degraded in at least 40 of the 154 independent treatments, emphasizing their predisposition to induced degradation (FIG. 1G; Appendix I).
(§2) Next, the frequency of degradation assessment was corrected for over-representation of molecules in the full dataset by omitting replicate profiling of compounds under different experimental conditions, to remove any bias. […] Unsurprisingly, the top degradable kinases mirror those from the previous analysis (CDK4, AURKA, FER, WEE1, BLK), confirming that in sufficiently large datasets, even with over-representation of certain molecules, frequency of degradation is a good measure of general tractability.

[2] = target: protein kinases (human kinome) (Homo sapiens, UniProt O94804); settings: STK10 (O94804), experiment wp016
Description: as §1, §2

[3] = target: protein kinases (human kinome) (Homo sapiens, UniProt P11802); settings: experiment wp016
Description: as §1, §2

[4] = target: protein kinases (human kinome) (Homo sapiens, UniProt P16591); settings: for logFC of FER (P16591-1): Experiment wp016, down; for logFC of FER: FER P16591-1, experiment wp016
Description: as §1, §2

[5] = target: protein kinases (human kinome) (Homo sapiens, UniProt P24941); settings: experiment wp016
Description: as §1, §2

[6] = target: protein kinases (human kinome) (Homo sapiens, UniProt P30291); settings: experiment wp016
Description: as §1, §2

[7] = target: protein kinases (human kinome) (Homo sapiens, UniProt P50613); settings: for logFC: CDK7 (P50613) protein abundance, degrader vs DMSO, down; for logFC CDK7: CDK7 P50613, experiment wp016
Description: as §1, §2

[8] = target: protein kinases (human kinome) (Homo sapiens, UniProt P51451); settings: for logFC of BLK: BLK P51451, experiment wp016; for logFC of BLK (P51451): Experiment wp016, down
Description: as §1, §2

[9] = target: protein kinases (human kinome) (Homo sapiens, UniProt P53671); settings: experiment wp016; for logFC LIMK2: LIMK2 (P53671), down; for logFC of LIMK2: LIMK2 P53671
Description: as §1, §2

[10] = target: protein kinases (human kinome) (Homo sapiens, UniProt Q00534); settings: for logFC CDK6: CDK6 (Q00534), direction down, experiment wp016; for logFC of CDK6 (Q00534): Experiment wp016, down
Description: as §1, §2

[11] = target: protein kinases (human kinome) (Homo sapiens, UniProt Q00535); settings: experiment wp016; for logFC of CDK5: Accession Q00535; for logFC CDK5 (Q00535): direction of change down
Description: as §1, §2

[12] = target: protein kinases (human kinome) (Homo sapiens, UniProt Q00537); settings: experiment wp016; for logFC of CDK17: Accession Q00537; for logFC CDK17 (Q00537): direction of change down
Description: as §1, §2

[13] = target: T2, protein kinases (human kinome) (Homo sapiens, UniProt Q08881); settings: experiment wp016
T2 sequence (Q08881 1-620): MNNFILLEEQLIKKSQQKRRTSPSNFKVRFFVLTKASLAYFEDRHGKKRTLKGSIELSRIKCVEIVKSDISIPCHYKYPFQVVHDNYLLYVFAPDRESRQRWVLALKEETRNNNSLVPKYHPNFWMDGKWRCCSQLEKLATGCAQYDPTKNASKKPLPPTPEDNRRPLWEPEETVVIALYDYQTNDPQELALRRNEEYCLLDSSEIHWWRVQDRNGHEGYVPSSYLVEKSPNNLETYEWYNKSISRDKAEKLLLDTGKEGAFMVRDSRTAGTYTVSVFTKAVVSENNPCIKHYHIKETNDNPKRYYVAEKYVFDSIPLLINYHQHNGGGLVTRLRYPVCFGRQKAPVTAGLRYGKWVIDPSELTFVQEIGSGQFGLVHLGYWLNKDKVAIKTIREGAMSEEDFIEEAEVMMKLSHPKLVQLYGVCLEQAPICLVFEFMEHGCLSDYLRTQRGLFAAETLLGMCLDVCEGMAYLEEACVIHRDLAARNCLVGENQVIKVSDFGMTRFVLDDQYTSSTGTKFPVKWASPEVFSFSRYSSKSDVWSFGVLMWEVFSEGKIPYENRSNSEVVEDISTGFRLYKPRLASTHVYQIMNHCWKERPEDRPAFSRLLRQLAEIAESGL
Description: as §1, §2

[14] = target: protein kinases (human kinome) (Homo sapiens, UniProt Q14004); settings: experiment wp016
Description: as §1, §2

[15] = target: protein kinases (human kinome) (Homo sapiens, UniProt Q14289); settings: for logFC: PTK2B (Q14289-1) protein abundance, degrader vs DMSO, down; for logFC PTK2B: accession Q14289-1, experiment wp016, direction of change down
Description: as §1, §2

[16] = target: protein kinases (human kinome) (Homo sapiens, UniProt Q2M2I8); settings: experiment wp016
Description: as §1, §2

[17] = target: protein kinases (human kinome) (Homo sapiens, UniProt Q9NSY1); settings: BMP2K Q9NSY1; experiment wp016
Description: as §1, §2

[18] = target: protein kinases (human kinome) (Homo sapiens, UniProt Q9NYV4); settings: experiment wp016
Description: as §1, §2

[19] = test system: protein kinases (human kinome); settings: for logFC: CDK9 (P50750-2) protein abundance, degrader vs DMSO, down; for logFC LCK: accession P06239-3; for logFC LCK / logFC LCK (P06239-3): direction of change down
Description: as §1, §2

[20] = AAK1, accession Q2M218-1, direction of change down

Chain of protein kinases (human kinome) (Homo sapiens, UniProt Q00534) (Q00534 whole entry): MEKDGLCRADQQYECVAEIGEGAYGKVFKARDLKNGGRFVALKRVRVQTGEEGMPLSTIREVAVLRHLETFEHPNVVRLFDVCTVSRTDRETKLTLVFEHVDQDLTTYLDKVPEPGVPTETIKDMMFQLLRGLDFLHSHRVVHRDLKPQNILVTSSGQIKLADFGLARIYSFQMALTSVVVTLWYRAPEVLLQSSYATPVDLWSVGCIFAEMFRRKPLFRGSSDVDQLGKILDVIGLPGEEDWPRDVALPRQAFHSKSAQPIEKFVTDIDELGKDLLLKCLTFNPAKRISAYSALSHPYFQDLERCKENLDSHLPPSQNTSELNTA
Chain of protein kinases (human kinome) (Homo sapiens, UniProt Q14289) (Q14289 whole entry): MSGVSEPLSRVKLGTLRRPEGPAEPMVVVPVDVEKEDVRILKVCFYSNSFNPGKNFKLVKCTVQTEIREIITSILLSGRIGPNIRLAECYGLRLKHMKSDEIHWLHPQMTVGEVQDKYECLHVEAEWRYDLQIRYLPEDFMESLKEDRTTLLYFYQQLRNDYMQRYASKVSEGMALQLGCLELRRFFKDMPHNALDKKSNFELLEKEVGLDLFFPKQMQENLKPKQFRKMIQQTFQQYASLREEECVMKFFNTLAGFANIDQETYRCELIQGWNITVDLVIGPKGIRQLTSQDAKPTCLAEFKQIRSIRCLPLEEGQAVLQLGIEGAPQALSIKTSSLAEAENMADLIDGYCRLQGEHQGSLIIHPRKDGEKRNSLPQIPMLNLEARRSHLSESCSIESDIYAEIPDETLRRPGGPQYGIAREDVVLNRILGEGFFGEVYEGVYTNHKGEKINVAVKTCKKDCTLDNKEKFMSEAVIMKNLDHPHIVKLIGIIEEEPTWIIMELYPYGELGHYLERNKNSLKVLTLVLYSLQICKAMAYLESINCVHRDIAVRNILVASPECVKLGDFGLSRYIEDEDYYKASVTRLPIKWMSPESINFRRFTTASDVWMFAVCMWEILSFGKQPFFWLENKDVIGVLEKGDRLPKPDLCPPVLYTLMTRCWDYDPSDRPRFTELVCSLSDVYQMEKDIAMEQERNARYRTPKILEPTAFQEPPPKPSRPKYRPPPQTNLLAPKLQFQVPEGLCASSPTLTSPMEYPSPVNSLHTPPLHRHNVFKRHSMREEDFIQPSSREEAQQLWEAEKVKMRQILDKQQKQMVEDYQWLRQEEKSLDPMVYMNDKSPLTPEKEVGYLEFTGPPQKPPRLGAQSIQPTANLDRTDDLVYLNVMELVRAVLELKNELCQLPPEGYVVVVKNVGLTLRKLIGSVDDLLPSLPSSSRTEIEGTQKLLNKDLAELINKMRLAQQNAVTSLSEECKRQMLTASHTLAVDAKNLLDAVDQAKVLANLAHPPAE
Chain of protein kinases (human kinome) (Homo sapiens, UniProt Q00535) (Q00535 whole entry): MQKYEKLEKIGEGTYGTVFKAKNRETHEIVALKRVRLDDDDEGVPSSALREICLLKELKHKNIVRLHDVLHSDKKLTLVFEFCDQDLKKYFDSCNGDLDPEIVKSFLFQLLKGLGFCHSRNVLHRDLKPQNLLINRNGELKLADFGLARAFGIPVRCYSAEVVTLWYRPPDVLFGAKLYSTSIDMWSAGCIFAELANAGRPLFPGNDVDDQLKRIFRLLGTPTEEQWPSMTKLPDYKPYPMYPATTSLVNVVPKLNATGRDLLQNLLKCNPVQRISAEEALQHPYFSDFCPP
Chain of protein kinases (human kinome) (Homo sapiens, UniProt O94804) (O94804 whole entry): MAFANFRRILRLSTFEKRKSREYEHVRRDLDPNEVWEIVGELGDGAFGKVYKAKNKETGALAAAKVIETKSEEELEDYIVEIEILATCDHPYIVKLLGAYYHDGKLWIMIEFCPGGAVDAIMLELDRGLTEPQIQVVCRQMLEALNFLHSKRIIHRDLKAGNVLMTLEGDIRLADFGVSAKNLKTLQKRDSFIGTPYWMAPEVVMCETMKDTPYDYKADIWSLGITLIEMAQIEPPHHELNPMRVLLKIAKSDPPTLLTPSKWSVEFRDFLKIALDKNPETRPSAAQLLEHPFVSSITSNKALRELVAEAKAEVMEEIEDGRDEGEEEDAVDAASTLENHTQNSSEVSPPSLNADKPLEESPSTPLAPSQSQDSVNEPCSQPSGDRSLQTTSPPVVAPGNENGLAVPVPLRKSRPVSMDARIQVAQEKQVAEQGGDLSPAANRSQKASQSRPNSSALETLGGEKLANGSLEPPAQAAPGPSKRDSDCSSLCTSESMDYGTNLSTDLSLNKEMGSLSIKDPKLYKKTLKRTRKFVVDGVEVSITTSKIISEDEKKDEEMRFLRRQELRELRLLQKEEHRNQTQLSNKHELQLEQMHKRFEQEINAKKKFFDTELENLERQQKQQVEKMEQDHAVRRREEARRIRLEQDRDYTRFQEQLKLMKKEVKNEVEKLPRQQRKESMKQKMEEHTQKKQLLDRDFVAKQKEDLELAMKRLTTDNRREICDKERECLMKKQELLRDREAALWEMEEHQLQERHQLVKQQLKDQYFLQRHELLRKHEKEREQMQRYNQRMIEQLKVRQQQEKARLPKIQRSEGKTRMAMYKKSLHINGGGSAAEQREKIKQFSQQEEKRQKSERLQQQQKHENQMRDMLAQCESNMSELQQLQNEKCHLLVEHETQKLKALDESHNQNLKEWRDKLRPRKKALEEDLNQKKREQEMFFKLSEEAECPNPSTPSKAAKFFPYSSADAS
Chain of protein kinases (human kinome) (Homo sapiens, UniProt Q2M2I8) (Q2M2I8 whole entry): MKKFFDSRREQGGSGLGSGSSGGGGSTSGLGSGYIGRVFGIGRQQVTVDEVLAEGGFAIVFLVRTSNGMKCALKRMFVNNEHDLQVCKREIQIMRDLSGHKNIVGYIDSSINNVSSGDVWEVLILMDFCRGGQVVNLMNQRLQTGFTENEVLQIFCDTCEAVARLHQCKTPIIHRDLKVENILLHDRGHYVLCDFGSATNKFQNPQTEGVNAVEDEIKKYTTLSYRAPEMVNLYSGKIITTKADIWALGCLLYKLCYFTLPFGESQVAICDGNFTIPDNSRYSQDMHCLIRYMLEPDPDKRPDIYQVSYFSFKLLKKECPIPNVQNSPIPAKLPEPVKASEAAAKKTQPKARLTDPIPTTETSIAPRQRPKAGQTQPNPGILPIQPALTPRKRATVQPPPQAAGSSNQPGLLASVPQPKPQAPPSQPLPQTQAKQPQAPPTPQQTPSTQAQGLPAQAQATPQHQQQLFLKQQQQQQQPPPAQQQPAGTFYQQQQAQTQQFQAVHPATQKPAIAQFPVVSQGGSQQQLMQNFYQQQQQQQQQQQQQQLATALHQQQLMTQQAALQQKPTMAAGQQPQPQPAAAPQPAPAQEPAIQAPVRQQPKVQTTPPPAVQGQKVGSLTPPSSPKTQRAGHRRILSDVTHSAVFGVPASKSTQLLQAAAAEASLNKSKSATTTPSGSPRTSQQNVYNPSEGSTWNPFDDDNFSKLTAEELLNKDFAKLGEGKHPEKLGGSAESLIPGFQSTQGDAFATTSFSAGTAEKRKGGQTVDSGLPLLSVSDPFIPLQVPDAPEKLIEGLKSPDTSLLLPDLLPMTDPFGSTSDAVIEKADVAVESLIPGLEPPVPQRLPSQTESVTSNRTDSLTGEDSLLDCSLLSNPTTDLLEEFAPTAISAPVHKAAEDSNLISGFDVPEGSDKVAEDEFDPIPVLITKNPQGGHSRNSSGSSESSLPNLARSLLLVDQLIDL
Chain of protein kinases (human kinome) (Homo sapiens, UniProt P50613) (P50613 whole entry): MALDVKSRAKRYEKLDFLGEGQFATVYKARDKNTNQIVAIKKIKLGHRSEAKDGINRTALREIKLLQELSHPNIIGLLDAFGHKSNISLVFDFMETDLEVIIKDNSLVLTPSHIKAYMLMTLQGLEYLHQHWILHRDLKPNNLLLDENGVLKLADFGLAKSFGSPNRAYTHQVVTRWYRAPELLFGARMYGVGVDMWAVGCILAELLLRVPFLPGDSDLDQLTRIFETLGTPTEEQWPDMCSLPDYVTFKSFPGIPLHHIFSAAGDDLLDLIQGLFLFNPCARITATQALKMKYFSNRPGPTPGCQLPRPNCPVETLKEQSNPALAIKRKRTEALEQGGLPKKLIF
Chain of protein kinases (human kinome) (Homo sapiens, UniProt P16591) (P16591 whole entry): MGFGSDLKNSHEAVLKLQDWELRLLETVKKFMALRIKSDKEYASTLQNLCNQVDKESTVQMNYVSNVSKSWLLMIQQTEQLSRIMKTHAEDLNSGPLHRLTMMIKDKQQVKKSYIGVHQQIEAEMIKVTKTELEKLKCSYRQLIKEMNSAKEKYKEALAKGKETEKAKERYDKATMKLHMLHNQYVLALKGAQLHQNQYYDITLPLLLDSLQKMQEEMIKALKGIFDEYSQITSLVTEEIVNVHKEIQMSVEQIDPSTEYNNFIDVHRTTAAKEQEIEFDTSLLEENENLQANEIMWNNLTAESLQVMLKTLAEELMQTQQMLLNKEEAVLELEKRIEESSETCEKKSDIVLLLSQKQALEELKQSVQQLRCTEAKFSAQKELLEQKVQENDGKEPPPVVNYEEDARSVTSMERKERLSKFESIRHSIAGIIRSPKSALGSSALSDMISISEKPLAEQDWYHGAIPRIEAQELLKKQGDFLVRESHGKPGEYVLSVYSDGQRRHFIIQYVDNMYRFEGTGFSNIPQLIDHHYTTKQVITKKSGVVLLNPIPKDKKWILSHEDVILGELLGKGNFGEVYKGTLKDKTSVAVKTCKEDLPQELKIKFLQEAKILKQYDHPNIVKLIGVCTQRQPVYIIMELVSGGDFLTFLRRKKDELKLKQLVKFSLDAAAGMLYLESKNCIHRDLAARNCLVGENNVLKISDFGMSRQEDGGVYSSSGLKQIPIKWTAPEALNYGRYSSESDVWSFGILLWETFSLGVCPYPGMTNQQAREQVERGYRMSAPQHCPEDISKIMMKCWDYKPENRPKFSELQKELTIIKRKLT
Chain of protein kinases (human kinome) (Homo sapiens, UniProt P11802) (P11802 whole entry): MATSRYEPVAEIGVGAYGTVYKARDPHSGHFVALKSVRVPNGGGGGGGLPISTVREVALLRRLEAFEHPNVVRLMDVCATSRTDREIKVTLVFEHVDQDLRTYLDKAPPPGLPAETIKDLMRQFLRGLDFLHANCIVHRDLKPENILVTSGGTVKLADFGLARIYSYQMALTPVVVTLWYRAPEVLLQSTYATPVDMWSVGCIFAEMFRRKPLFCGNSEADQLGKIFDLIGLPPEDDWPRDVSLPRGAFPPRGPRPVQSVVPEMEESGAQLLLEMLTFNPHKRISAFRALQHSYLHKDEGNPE

Compound | logFC AURKA (O14965) [1] | logFC [2] | logFC ([2]; direction down) | logFC CDK4 (P11802) [3] | logFC of FER (P16591-1) [4] | logFC of FER [4] | logFC CDK2 (P24941-1) [5] | logFC CDK2 (P24941-1) ([5]; direction of change down) | logFC WEE1 (P30291-1) [6] | logFC [7] | logFC CDK7 [7] | logFC of BLK [8] | logFC of BLK (P51451) [8] | logFC LIMK2 [9] | logFC of LIMK2 [9] | logFC CDK6 [10] | logFC of CDK6 (Q00534) [10] | logFC of CDK5 [11] | logFC CDK5 (Q00535) [11] | logFC of CDK17 [12] | also measured
CC(C)S(=O)(=O)c1ccccc1Nc1nc(Nc2ccc(N3CCN(CCOCCOCCNC(=O)CNc4ccc5c(c4)C(=O)N(C4CCC(=O)NC4=O)C5=O)CC3)cc2)ncc1Cl (stereo not drawn) [LT2.49] | −1.853 | −0.3336 | −0.3336 | −0.8985 | −2.467 | −2.467 | −0.5177 | −0.5177 | −1.314 | −1.014 | −1.014 | −1.613 | −1.613 | −0.9573 | −0.9573 | −0.6531 | −0.6531 | −0.8608 | −0.8608 | −0.7544 | logFC CDK17 (Q00537) [12]: −0.7544; logFC ITK (Q08881) [13]: −2.212; logFC ITK (Q08881) ([13]; direction of change down): −2.212; logFC CDK13 ([14]; Accession Q14004-1): −0.3839; logFC CDK13 (Q14004-1) [14]: −0.3839; logFC [15]: −3.365; logFC PTK2B [15]: −3.365; logFC AAK1 ([16]; AAK1 (Q2M218-1), down): −1.778; logFC AAK1 [16, 20]: −1.778; logFC [17]: −0.5079; logFC BMP2K [17]: −0.5079; logFC CDK12 ([18]; Accession Q9NYV4-1): −0.868; logFC CDK12 ([18]; CDK12 (Q9NYV4-1)): −0.868; logFC [19]: −0.6469; logFC PRKAA1 (Q13131-2) ([19]; Experiment wp016, direction down): −0.3739; logFC LCK ([19]; experiment wp016): −0.6186; logFC CDK9 (P50750-2) ([19]; experiment wp016): −0.6469; logFC PRKAA1 (Q13131-2) ([19]; experiment wp016): −0.3739; logFC LCK (P06239-3) ([19]; experiment wp016): −0.6186
CC(C)S(=O)(=O)c1ccccc1Nc1nc(Nc2ccc(N3CCN(CCOCCOCCOCCNC(=O)CNc4ccc5c(c4)C(=O)N(C4CCC(=O)NC4=O)C5=O)CC3)cc2)ncc1Cl (stereo not drawn) [SK.3.89] | −1.672 | −0.3539 | −0.3539 | −0.5177 | −2.262 | −2.262 | −0.5953 | −0.5953 | −1.017 | −0.7959 | −0.7959 | −1.335 | −1.335 | −0.444 | −0.444 | −0.3396 | −0.3396 | −0.6254 | −0.6254 | −0.6057 | logFC CDK17 (Q00537) [12]: −0.6057; logFC ITK (Q08881) [13]: −2.044; logFC ITK (Q08881) ([13]; direction of change down): −2.044; logFC [15]: −3.554; logFC PTK2B [15]: −3.554; logFC AAK1 ([16]; AAK1 (Q2M218-1), down): −1.219; logFC AAK1 [16, 20]: −1.219; logFC CDK12 ([18]; Accession Q9NYV4-1): −0.5237; logFC CDK12 ([18]; CDK12 (Q9NYV4-1)): −0.5237; logFC [19]: −0.4777; logFC LCK ([19]; experiment wp016): −0.449; logFC CDK9 (P50750-2) ([19]; experiment wp016): −0.4777; logFC LCK (P06239-3) ([19]; experiment wp016): −0.449

From US20240269139A1, “COMPOUNDS FOR TARGETED PROTEIN DEGRADATION OF KINASES” (DANA-FARBER CANCER INSTITUTE, INC., priority 2020, published 2024)
